{"source": "paper PMC5218480", "about": "(PLoS ONE, 2017)", "system": "MV-4-11 cells", "experiment": "Gene expression microarray analysis (Affymetrix PrimeView) and GSEA", "assay_type": "cell-based, human", "parameters": "RFU PODN (11730768_x_at) / Fold change /veh PODN (11730768_x_at) / RFU LINC00158 (11744669_a_at) / Fold change /veh LINC00158 (11744669_a_at) / RFU DUSP10 (11751237_a_at) / Fold change /veh DUSP10 (11751237_a_at) / RFU ID3 (11757404_x_at) / Fold change /veh ID3 (11757404_x_at) / RFU PLEKHG5 (11737974_s_at) / Fold change /veh PLEKHG5 (11737974_s_at) / RFU LRRC4B (11730491_at) / Fold change /veh LRRC4B (11730491_at) / RFU GIMAP4 (11747438_a_at) / Fold change /veh GIMAP4 (11747438_a_at) / RFU KRT8 (11758183_x_at) / Fold change /veh KRT8 (11758183_x_at) / RFU CNN1 (11734310_a_at) / Fold change /veh CNN1 (11734310_a_at) / RFU VPS37D (11726825_at) / Fold change /veh VPS37D (11726825_at) / RFU C10orf10 (11716522_x_at) / Fold change /veh C10orf10 (11716522_x_at) / RFU KIR2DL2 /// KIR2DL4 /// KIR2DL5A /// KIR2DL5B /// KIR2DS1 /// KIR2DS2 /// KIR2DS3 /// KIR2DS4 /// KIR3DL3 /// KIR3DL3 /// KIR3DS1 (11738374_at) / Fold change /veh KIR2DL2 /// KIR2DL4 /// KIR2DL5A /// KIR2DL5B /// KIR2DS1 /// KIR2DS2 /// KIR2DS3 /// KIR2DS4 /// KIR3DL3 /// KIR3DL3 /// KIR3DS1 (11738374_at) / RFU C1QL1 (11718748_at) / Fold change /veh C1QL1 (11718748_at) / RFU TMPRSS4 (11747572_a_at) / Fold change /veh TMPRSS4 (11747572_a_at) / RFU HAMP (11756126_x_at) / Fold change /veh HAMP (11756126_x_at) / RFU RNFT2 (11725882_a_at) / Fold change /veh RNFT2 (11725882_a_at) / RFU NR4A2 (11747474_a_at) / Fold change /veh NR4A2 (11747474_a_at) / RFU ABCC12 (11746883_a_at) / Fold change /veh ABCC12 (11746883_a_at) / RFU TMEM136 (11760407_x_at) / Fold change /veh TMEM136 (11760407_x_at) / RFU CLDN22 /// WWC2 (11732394_at) / Fold change /veh CLDN22 /// WWC2 (11732394_at) / RFU HLA-DPB1 (11760878_x_at) / Fold change /veh HLA-DPB1 (11760878_x_at) / RFU SPINT1 (11716480_a_at) / Fold change /veh SPINT1 (11716480_a_at) / RFU GAP43 (11754022_s_at) / Fold change /veh GAP43 (11754022_s_at) / RFU A4GNT (11735810_at) / Fold change /veh A4GNT (11735810_at) / RFU PRB3 (11715151_x_at) / Fold change /veh PRB3 (11715151_x_at) / RFU TUBB4B (11761932_at) / Fold change /veh TUBB4B (11761932_at) / RFU CAPN14 (11732068_a_at) / Fold change /veh CAPN14 (11732068_a_at) / RFU TMCC2 (11721928_a_at) / Fold change /veh TMCC2 (11721928_a_at) / RFU IRGQ (11745062_a_at) / Fold change /veh IRGQ (11745062_a_at) / RFU FAM174B (11720279_a_at) / Fold change /veh FAM174B (11720279_a_at) / RFU TMPRSS4 (11748680_a_at) / Fold change /veh TMPRSS4 (11748680_a_at) / RFU FAM212B (11763350_a_at) / Fold change /veh FAM212B (11763350_a_at) / RFU PLEKHG5 (11743358_a_at) / Fold change /veh PLEKHG5 (11743358_a_at) / RFU ZSCAN30 (11745921_a_at) / Fold change /veh ZSCAN30 (11745921_a_at) / RFU CMKLR1 (11741424_a_at) / Fold change /veh CMKLR1 (11741424_a_at) / RFU LOC101060620 /// MAPK8IP1 (11723275_at) / Fold change /veh LOC101060620 /// MAPK8IP1 (11723275_at) / RFU SPTSSB (11747773_x_at) / Fold change /veh SPTSSB (11747773_x_at) / RFU PRSS12 (11739890_at) / Fold change /veh PRSS12 (11739890_at) / RFU BIN1 (11741810_x_at) / Fold change /veh BIN1 (11741810_x_at) / RFU WNT11 (11732464_a_at) / Fold change /veh WNT11 (11732464_a_at) / RFU C10orf10 (11716521_a_at) / Fold change /veh C10orf10 (11716521_a_at) / RFU C5orf56 (11738089_at) / Fold change /veh C5orf56 (11738089_at) / RFU CYB561 (11721691_x_at) / Fold change /veh CYB561 (11721691_x_at) / RFU ANKRD19P (11752326_a_at) / Fold change /veh ANKRD19P (11752326_a_at) / RFU OR2T12 /// OR2T33 /// OR2T8 (11738714_s_at) / Fold change /veh OR2T12 /// OR2T33 /// OR2T8 (11738714_s_at) / RFU VCAN (11748164_a_at) / Fold change /veh VCAN (11748164_a_at) / RFU JSRP1 (11732532_at) / Fold change /veh JSRP1 (11732532_at) / RFU KRTAP10-11 (11738290_x_at) / Fold change /veh KRTAP10-11 (11738290_x_at) / RFU MYO3A (11730013_a_at) / Fold change /veh MYO3A (11730013_a_at) / RFU EBF3 (11725865_a_at) / Fold change /veh EBF3 (11725865_a_at) / RFU CAMK2N1 (11719241_x_at) / Fold change /veh CAMK2N1 (11719241_x_at) / RFU C5orf56 (11738088_a_at) / Fold change /veh C5orf56 (11738088_a_at) / RFU OLFML3 (11715873_a_at) / Fold change /veh OLFML3 (11715873_a_at) / RFU LOC100653217 /// NTM (11731650_a_at) / Fold change /veh LOC100653217 /// NTM (11731650_a_at) / RFU MAPK11 (11762145_a_at) / Fold change /veh MAPK11 (11762145_a_at) / RFU FIZ1 (11724087_x_at) / Fold change /veh FIZ1 (11724087_x_at) / RFU OASL (11726364_x_at) / Fold change /veh OASL (11726364_x_at) / RFU SOX15 (11748057_x_at) / Fold change /veh SOX15 (11748057_x_at) / RFU CD79A (11719716_a_at) / Fold change /veh CD79A (11719716_a_at) / RFU HIST1H1D (11736915_at) / Fold change /veh HIST1H1D (11736915_at) / RFU CASKIN2 (11723855_a_at) / Fold change /veh CASKIN2 (11723855_a_at) / RFU LOC730098 (11760151_x_at) / Fold change /veh LOC730098 (11760151_x_at) / RFU OR4N2 (11742367_at) / Fold change /veh OR4N2 (11742367_at) / RFU PRRT2 (11749266_a_at) / Fold change /veh PRRT2 (11749266_a_at) / RFU SNX32 (11753110_a_at) / Fold change /veh SNX32 (11753110_a_at) / RFU CDHR5 (11726645_a_at) / Fold change /veh CDHR5 (11726645_a_at) / RFU RCAN1 (11760418_a_at) / Fold change /veh RCAN1 (11760418_a_at) / RFU FAM167A (11723789_a_at) / Fold change /veh FAM167A (11723789_a_at) / RFU FAM26E (11764081_at) / Fold change /veh FAM26E (11764081_at) / RFU ISYNA1 (11749810_s_at) / Fold change /veh ISYNA1 (11749810_s_at) / RFU ACY1 (11761880_at) / Fold change /veh ACY1 (11761880_at) / RFU 11764098_at / Fold change /veh 11764098_at / RFU SAMD14 (11745864_x_at) / Fold change /veh SAMD14 (11745864_x_at) / RFU NPB (11741838_a_at) / Fold change /veh NPB (11741838_a_at) / RFU TMPRSS6 (11731388_a_at) / Fold change /veh TMPRSS6 (11731388_a_at) / RFU KRTAP10-2 (11738614_at) / Fold change /veh KRTAP10-2 (11738614_at) / RFU ARHGAP8 /// PRR5-ARHGAP8 (11727945_x_at) / Fold change /veh ARHGAP8 /// PRR5-ARHGAP8 (11727945_x_at) / RFU KRTAP5-7 /// NADSYN1 (11734609_at) / Fold change /veh KRTAP5-7 /// NADSYN1 (11734609_at) / RFU RASL12 (11751679_a_at) / Fold change /veh RASL12 (11751679_a_at) / RFU CDKN2B (11736163_a_at) / Fold change /veh CDKN2B (11736163_a_at) / RFU PRF1 (11729649_at) / Fold change /veh PRF1 (11729649_at) / RFU, ZNF638 /// ZNF638-IT1 / Fold change vs veh, ZNF638 /// ZNF638-IT1 / RFU, PANK3 / Fold change vs veh, PANK3 / RFU, SH3YL1 / Fold change vs veh, SH3YL1 / RFU, ZEB2 / Fold change vs veh, ZEB2 / RFU, NRIP1 / Fold change vs veh, NRIP1 / RFU, PTTG1IP / Fold change vs veh, PTTG1IP / RFU, CAPN2 / Fold change vs veh, CAPN2 / RFU, MED14 / Fold change vs veh, MED14 / RFU, SNORA58 / Fold change vs veh, SNORA58 / RFU, C1orf63 / Fold change vs veh, C1orf63 / RFU, LRRFIP1 / Fold change vs veh, LRRFIP1 / RFU, NDUFAF7 / Fold change vs veh, NDUFAF7 / RFU, SLC12A2 / Fold change vs veh, SLC12A2 / RFU, IBTK / Fold change vs veh, IBTK / RFU, ESF1 / Fold change vs veh, ESF1 / Fold change vs veh, TMEM50B / RFU, TAOK1 / Fold change vs veh, TAOK1 / RFU, ACBD3 / Fold change vs veh, ACBD3 / RFU, TMA16 / Fold change vs veh, TMA16 / RFU, RWDD3 / Fold change vs veh, RWDD3 / RFU, BCAT1 / Fold change vs veh, BCAT1 / RFU, EDEM3 / Fold change vs veh, EDEM3 / RFU, TMEM33 / Fold change vs veh, TMEM33 / RFU, WDR75 / Fold change vs veh, WDR75 / RFU, AHCTF1 / Fold change vs veh, AHCTF1 / RFU, TFRC / Fold change vs veh, TFRC / RFU, ZDHHC17 / Fold change vs veh, ZDHHC17 / RFU, NOM1 / Fold change vs veh, NOM1 / RFU, ARL8B / Fold change vs veh, ARL8B / RFU, ZBTB11 / Fold change vs veh, ZBTB11 / RFU, TAMM41 / Fold change vs veh, TAMM41 / RFU, KIAA1704 /// LOC100996395 / Fold change vs veh, KIAA1704 /// LOC100996395 / RFU, ING1 / Fold change vs veh, ING1 / RFU, TRMT61B / Fold change vs veh, TRMT61B / RFU, FUBP3 / Fold change vs veh, FUBP3 / RFU, TP53 / Fold change vs veh, TP53 / RFU, TNKS2 / Fold change vs veh, TNKS2 / RFU, ZFP14 / Fold change vs veh, ZFP14 / RFU, ACTR2 / Fold change vs veh, ACTR2 / RFU, PPP3R1 / Fold change vs veh, PPP3R1 / RFU, PIK3R1 / Fold change vs veh, PIK3R1 / RFU, HNRNPA1 / Fold change vs veh, HNRNPA1 / RFU, RNF170 / Fold change vs veh, RNF170 / RFU, ZNF28 / Fold change vs veh, ZNF28 / RFU, RNGTT / Fold change vs veh, RNGTT / RFU, OGT / Fold change vs veh, OGT / RFU, BRD1 / Fold change vs veh, BRD1 / RFU, MARS / Fold change vs veh, MARS / RFU, ZNF655 / Fold change vs veh, ZNF655 / RFU, FAHD1 / Fold change vs veh, FAHD1 / RFU, BDP1 / Fold change vs veh, BDP1 / RFU, LRRCC1 / Fold change vs veh, LRRCC1 / RFU, ARID1A / Fold change vs veh, ARID1A / RFU, ZNF146 / Fold change vs veh, ZNF146 / RFU, ZNF330 / Fold change vs veh, ZNF330 / RFU, GPN3 / Fold change vs veh, GPN3 / RFU, C9orf123 / Fold change vs veh, C9orf123 / RFU, N4BP2L2 / Fold change vs veh, N4BP2L2 / RFU, ARFIP1 / Fold change vs veh, ARFIP1 / RFU, FAM179B / Fold change vs veh, FAM179B / RFU, BCL10 / Fold change vs veh, BCL10 / RFU, UHRF1BP1L / Fold change vs veh, UHRF1BP1L / RFU, BET1 / Fold change vs veh, BET1 / RFU, CNOT2 / Fold change vs veh, CNOT2 / RFU, ZNF268 / Fold change vs veh, ZNF268 / Fold change vs veh, ZNF507 / RFU, DGCR2 / Fold change vs veh, DGCR2 / RFU, WDSUB1 / Fold change vs veh, WDSUB1 / Fold change vs veh, HSP90B1 /// MIR3652 / RFU, ADSS / Fold change vs veh, ADSS / RFU, GK / Fold change vs veh, GK / RFU, ZNF148 / Fold change vs veh, ZNF148 / RFU, TAF9 / Fold change vs veh, TAF9 / RFU, SLC1A5 / Fold change vs veh, SLC1A5 / RFU, SLMO2 / Fold change vs veh, SLMO2 / RFU, ABCC4 / Fold change vs veh, ABCC4 / RFU, LOC101060439 /// RAP1B / Fold change vs veh, LOC101060439 /// RAP1B / RFU, RFX7 / Fold change vs veh, RFX7 / RFU, GTPBP10 / Fold change vs veh, GTPBP10 / RFU, CNEP1R1 / Fold change vs veh, CNEP1R1 / RFU, BIVM-ERCC5 /// ERCC5 / Fold change vs veh, BIVM-ERCC5 /// ERCC5 / RFU, ILF3 / Fold change vs veh, ILF3 / RFU 11762660_at / Fold change /veh 11762660_at / RFU VCAN (11757783_s_at) / Fold change /veh VCAN (11757783_s_at) / RFU DDX43 (11728927_at) / Fold change /veh DDX43 (11728927_at) / RFU KRT8 (11758188_x_at) / Fold change /veh KRT8 (11758188_x_at) / RFU NKD1 (11759106_at) / Fold change /veh NKD1 (11759106_at) / RFU SRD5A1 (11742802_a_at) / Fold change /veh SRD5A1 (11742802_a_at) / RFU TPSAB1 /// TPSB2 (11721975_s_at) / Fold change /veh TPSAB1 /// TPSB2 (11721975_s_at) / RFU GSTM3 (11746129_a_at) / Fold change /veh GSTM3 (11746129_a_at) / RFU IL23R (11737362_x_at) / Fold change /veh IL23R (11737362_x_at) / RFU TMEM51 (11727254_a_at) / Fold change /veh TMEM51 (11727254_a_at) / RFU PIWIL2 (11732686_x_at) / Fold change /veh PIWIL2 (11732686_x_at) / RFU ORM1 (11744905_x_at) / Fold change /veh ORM1 (11744905_x_at) / RFU CCDC152 (11743942_at) / Fold change /veh CCDC152 (11743942_at) / RFU ECM1 (11717891_a_at) / Fold change /veh ECM1 (11717891_a_at) / RFU IL23R (11748794_a_at) / Fold change /veh IL23R (11748794_a_at) / RFU TNFAIP8L3 (11732012_x_at) / Fold change /veh TNFAIP8L3 (11732012_x_at) / RFU MBOAT4 (11741988_at) / Fold change /veh MBOAT4 (11741988_at) / RFU 11764193_at / Fold change /veh 11764193_at / RFU TMEM53 (11763286_at) / Fold change /veh TMEM53 (11763286_at) / RFU MAGEB2 (11727129_at) / Fold change /veh MAGEB2 (11727129_at) / RFU TMEM200A (11744735_a_at) / Fold change /veh TMEM200A (11744735_a_at) / RFU CCDC152 (11751479_a_at) / Fold change /veh CCDC152 (11751479_a_at) / RFU FAM211A (11726209_a_at) / Fold change /veh FAM211A (11726209_a_at) / RFU RGS16 (11746705_a_at) / Fold change /veh RGS16 (11746705_a_at) / RFU VCAN (11755009_s_at) / Fold change /veh VCAN (11755009_s_at) / RFU RHOB (11743442_s_at) / Fold change /veh RHOB (11743442_s_at) / RFU RGS16 (11720943_a_at) / Fold change /veh RGS16 (11720943_a_at) / RFU RGS16 (11720944_at) / Fold change /veh RGS16 (11720944_at) / RFU, VPS4B / Fold change vs veh, VPS4B / RFU, CREB1 / Fold change vs veh, CREB1 / RFU, DNAJC13 / Fold change vs veh, DNAJC13 / RFU, GNAQ / Fold change vs veh, GNAQ / RFU, CDK5R1 / Fold change vs veh, CDK5R1 / RFU, ZRANB3 / Fold change vs veh, ZRANB3 / RFU, CUL4A / Fold change vs veh, CUL4A / RFU, CCNY / Fold change vs veh, CCNY / RFU, UFL1 / Fold change vs veh, UFL1 / RFU, COG3 / Fold change vs veh, COG3 / RFU, DIAPH2 / Fold change vs veh, DIAPH2 / RFU, SKA2 / Fold change vs veh, SKA2 / RFU, AFF3 / Fold change vs veh, AFF3 / RFU, LMF1 / Fold change vs veh, LMF1 / RFU, IPO11 / Fold change vs veh, IPO11 / RFU, DFFB / Fold change vs veh, DFFB / RFU, FOXP1 / Fold change vs veh, FOXP1 / RFU, CARD8 / Fold change vs veh, CARD8 / RFU, STRN3 / Fold change vs veh, STRN3 / RFU, ADK / Fold change vs veh, ADK / RFU, RASSF2 / Fold change vs veh, RASSF2 / RFU, WIPF1 / Fold change vs veh, WIPF1 / RFU, LARP1B / Fold change vs veh, LARP1B / RFU, RASA1 / Fold change vs veh, RASA1 / RFU, RB1 / Fold change vs veh, RB1 / RFU, PPFIA1 / Fold change vs veh, PPFIA1 / RFU, MAT2A / Fold change vs veh, MAT2A / RFU, CCT5 / Fold change vs veh, CCT5 / RFU, WDR92 / Fold change vs veh, WDR92 / RFU, CUX1 / Fold change vs veh, CUX1 / RFU, TTC7A / Fold change vs veh, TTC7A / RFU, TMEM135 / Fold change vs veh, TMEM135 / RFU, DEPTOR / Fold change vs veh, DEPTOR / RFU, CPM / Fold change vs veh, CPM / RFU, DNAJB6 / Fold change vs veh, DNAJB6 / RFU, CACNA2D3 / Fold change vs veh, CACNA2D3 / RFU, DTX4 / Fold change vs veh, DTX4 / RFU, TFCP2 / Fold change vs veh, TFCP2 / RFU, GMCL1 /// GMCL1P1 / Fold change vs veh, GMCL1 /// GMCL1P1 / RFU, AEBP2 / Fold change vs veh, AEBP2 / RFU, SNHG1 /// SNORD22 /// SNORD25 /// SNORD26 /// SNORD27 /// SNORD28 /// SNORD29 /// SNORD31 / Fold change vs veh, SNHG1 /// SNORD22 /// SNORD25 /// SNORD26 /// SNORD27 /// SNORD28 /// SNORD29 /// SNORD31 / Fold change (Aza/veh), C12orf56 (ProbeSet 11735607_a_at) / Fold change (ACY-1035/veh), C12orf56 (ProbeSet 11735607_a_at) / Fold change (Aza/veh), FGFR1OP (ProbeSet 11751329_s_at) / Fold change (ACY-1035/veh), FGFR1OP (ProbeSet 11751329_s_at) / Fold change (Aza/veh), VPS36 (ProbeSet 11739960_a_at) / Fold change (ACY-1035/veh), VPS36 (ProbeSet 11739960_a_at) / RFU SYPL1 (11715823_x_at) / Fold change /veh SYPL1 (11715823_x_at) / RFU IGFBP7 (11715501_s_at) / Fold change /veh IGFBP7 (11715501_s_at) / RFU REEP3 (11722064_at) / Fold change /veh REEP3 (11722064_at) / RFU IGLL1 (11728026_x_at) / Fold change /veh IGLL1 (11728026_x_at): dose or concentration left out as unconfirmed", "details": "MV-4-11 cells, 48 hours"}
{"compound": "Nc1ccc(-c2cccs2)cc1NC(=O)c1ccc2c(c1)cc(C1CC1)n2CCN1CCOCC1", "note": "[ACY-1035]", "values": [{"measurement": "Fold change /veh CMKLR1 (11741424_a_at)", "result": 1.11}]}
